In US10370359B2, “Process for the preparation of crystalline dexlansoprazole” (DIPHARMA FRANCIS S.r.l., priority 2017, dated 2019):
Where two headings read alike, the source gives them in different places.

Legend:
[1] = assay type: physicochemical; settings: for purity of the samples, 24 h: after 24 hours at 70° C. in an oven; for purity of the samples, 24 h / purity of the samples, 48 h / purity of the samples, 72 h / purity of the samples, 0 h: HPLC at 285 nm; for purity of the samples, 48 h: after 48 hours at 70° C. in an oven; for purity of the samples, 72 h: after 72 hours at 70° C. in an oven; for purity of the samples, 0 h: time 0, before heating at 70° C.
Method: The samples of crystalline anhydrous dexlansoprazole prepared according to the method of the present invention (new method) and those made according to the method of U.S. Pat. No. 8,314,241 (present Example 4) are heated in an oven at 70° C.
After 24, 48 and 72 hours, samples are taken and analyzed by HPLC at a wavelength of 285 nm.

[2] = Thermal stability of dexlansoprazole in solution (dispersion), HPLC; assay type: physicochemical; settings: dispersion 14 hours at 45° C., distillation at 50° C. at reduced pressure, further 14 hours at 45° C.; not present at time 0
Method: In order to establish the thermal stability of dexlansoprazole the dispersion of dexlansoprazole was heated for 14 hours at 45° C., then a distillation at 50° C. at reduced pressure was performed and finally the dispersion was kept for further 14 hours at 45° C.
The color of the resulting dispersion turned into a slight yellow.

[3] = listed as crystalline anhydrous dexlansoprazole prepared with the procedure of the present

For `Cc1c(OCC(F)(F)F)ccnc1C[S@@+]([O-])c1nc2ccccc2[nH]1` [Method of the present invention], the “decrease of the concentration of crystalline anhydrous dexlansoprazole” value ([1]; 70° C. for 72 hours, Area % HPLC at 285 nm) was “less than 0.1%”, the “purity of the samples, 24 h” value [1] was 99.95% and the “purity of the samples, 48 h” value [1] was 99.93%. The “purity of the samples, 72 h” value [1] was 99.93%, the “purity of the samples, 72 h” value [1, 3] was 99.93% and the “purity of the samples, 0 h” value [1] was 99.96%. The “purity of the samples, 0 h” value [1, 3] was 99.96%.

With `Cc1c(OCC(F)(F)F)ccnc1C[S@@+]([O-])c1nc2ccccc2[nH]1` [U.S. Pat. No. 8,314,241] the “increase of the contents of all the impurities” value ([1]; after 24 hours at 70° C.) was “more than 0.2%”, the “purity of the samples, 24 h” value [1] was 99.28% and the “purity of the samples, 48 h” value [1] was 99.09%. For the same molecule, the “increase of the contents of all the impurities” value ([1]; after 72 hours at 70° C.) was 0.60%, the “purity of the samples, 72 h” value [1] was 98.91% and the “purity of the samples, 0 h” value [1] was 99.51%.

For `Cc1c(OCC(F)(F)F)ccnc1C[S@@+]([O-])c1nc2ccccc2[nH]1` [dexlansoprazole], the “content of impurity of formula (I) formed” value [2] was 0.03%.
